What all share (format): cell-based
One assay has as its target T1, human TLR7 (Homo sapiens, UniProt Q9NYK1).
T1 construct: host or cells: HEK-Blue cells
T1 sequence (Q9NYK1 27-1049): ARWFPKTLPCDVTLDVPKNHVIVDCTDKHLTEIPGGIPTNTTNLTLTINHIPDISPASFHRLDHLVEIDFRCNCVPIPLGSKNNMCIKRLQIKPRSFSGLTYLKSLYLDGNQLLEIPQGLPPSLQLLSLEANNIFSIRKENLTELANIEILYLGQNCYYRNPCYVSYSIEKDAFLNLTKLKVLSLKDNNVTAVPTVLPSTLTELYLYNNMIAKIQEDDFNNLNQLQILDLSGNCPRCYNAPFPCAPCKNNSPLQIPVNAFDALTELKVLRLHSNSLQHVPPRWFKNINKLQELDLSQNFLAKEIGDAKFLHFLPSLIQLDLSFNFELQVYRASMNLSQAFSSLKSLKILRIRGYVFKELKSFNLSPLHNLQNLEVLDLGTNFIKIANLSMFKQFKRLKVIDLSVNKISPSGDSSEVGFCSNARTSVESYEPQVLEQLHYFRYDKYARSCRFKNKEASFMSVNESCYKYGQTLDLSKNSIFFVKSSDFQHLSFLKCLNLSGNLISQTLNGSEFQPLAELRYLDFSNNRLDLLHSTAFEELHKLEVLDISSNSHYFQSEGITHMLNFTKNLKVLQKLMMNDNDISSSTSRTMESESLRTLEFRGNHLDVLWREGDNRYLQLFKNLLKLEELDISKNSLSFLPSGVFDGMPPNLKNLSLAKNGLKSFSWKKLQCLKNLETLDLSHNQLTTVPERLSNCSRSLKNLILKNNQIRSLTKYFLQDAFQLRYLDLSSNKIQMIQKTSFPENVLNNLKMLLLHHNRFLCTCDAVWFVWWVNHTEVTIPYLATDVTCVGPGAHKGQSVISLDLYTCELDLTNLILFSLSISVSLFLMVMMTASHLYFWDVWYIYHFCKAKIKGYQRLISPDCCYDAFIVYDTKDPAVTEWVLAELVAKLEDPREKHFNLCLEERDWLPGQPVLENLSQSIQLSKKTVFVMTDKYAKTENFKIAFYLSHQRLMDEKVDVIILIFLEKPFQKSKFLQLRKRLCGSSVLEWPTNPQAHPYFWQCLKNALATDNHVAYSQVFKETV
The assay is described as follows: TLR7 inhibition reporter assay (HEK-Blue cells, SEAP reporter, gardiquimod stimulation). As to conditions: HEK-Blue cells overexpressing human TLR7, SEAP reporter, gardiquimod 7.5 μM; read-out: TLR7 IC50. A digest of the protocol: (§1)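 Dose–response from 0.05 nM to 50 μM was run in HEK-Blue human TLR7, TLR8 and TLR9 reporter cells. After 30 min at room temperature with compound, ligand was added (TLR7 gardiquimod 7.5 μM; TLR8 R848 15.9 μM; TLR9 ODN2006 5 nM) and SEAP measured next day, at 22 h.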
(In general: Reporter assays use an easily measured gene product as a stand-in for the process of interest.)

Another assay deals with T2, human TLR8 (Homo sapiens, UniProt Q9NR97).
T2 construct: host or cells: HEK-Blue cells
T2 sequence (Q9NR97 27-1041): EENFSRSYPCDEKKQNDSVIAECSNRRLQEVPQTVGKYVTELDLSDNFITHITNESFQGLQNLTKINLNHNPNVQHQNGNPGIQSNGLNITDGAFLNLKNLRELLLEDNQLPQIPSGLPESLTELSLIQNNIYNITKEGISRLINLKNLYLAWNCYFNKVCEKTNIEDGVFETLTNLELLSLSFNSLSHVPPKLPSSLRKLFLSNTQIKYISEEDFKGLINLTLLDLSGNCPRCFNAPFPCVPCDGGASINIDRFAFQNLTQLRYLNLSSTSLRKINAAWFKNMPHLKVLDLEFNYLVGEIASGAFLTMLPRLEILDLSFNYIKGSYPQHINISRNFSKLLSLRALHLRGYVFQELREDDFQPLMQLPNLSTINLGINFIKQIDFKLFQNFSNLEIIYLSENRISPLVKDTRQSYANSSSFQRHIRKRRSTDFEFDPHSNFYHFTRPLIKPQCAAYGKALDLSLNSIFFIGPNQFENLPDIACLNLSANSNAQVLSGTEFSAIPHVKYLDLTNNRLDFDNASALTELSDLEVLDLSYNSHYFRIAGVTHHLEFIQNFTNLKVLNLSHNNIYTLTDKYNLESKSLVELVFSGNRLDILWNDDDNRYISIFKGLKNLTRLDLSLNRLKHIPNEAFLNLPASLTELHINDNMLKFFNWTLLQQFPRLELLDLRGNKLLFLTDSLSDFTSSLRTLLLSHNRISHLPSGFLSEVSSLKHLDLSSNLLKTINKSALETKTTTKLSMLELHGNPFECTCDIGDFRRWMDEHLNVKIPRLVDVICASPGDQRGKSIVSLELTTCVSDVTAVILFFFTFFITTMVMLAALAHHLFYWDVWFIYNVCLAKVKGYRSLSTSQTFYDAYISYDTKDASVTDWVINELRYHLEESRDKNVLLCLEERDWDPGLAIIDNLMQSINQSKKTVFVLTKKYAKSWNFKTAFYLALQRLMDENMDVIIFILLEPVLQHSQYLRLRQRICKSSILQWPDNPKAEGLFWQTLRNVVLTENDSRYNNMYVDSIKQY
The assay is described as follows: TLR8 inhibition reporter assay (HEK-Blue cells, SEAP reporter, R848 stimulation). Particulars: HEK-Blue cells overexpressing human TLR8, SEAP reporter, R848 15.9 μM; read-out: TLR8 IC50. A digest of the protocol:
as §1

Another assay concerns the target T3, human TLR9 (Homo sapiens, UniProt Q9NR96).
T3 construct: host or cells: HEK-Blue cells
T3 sequence (Q9NR96 26-1032): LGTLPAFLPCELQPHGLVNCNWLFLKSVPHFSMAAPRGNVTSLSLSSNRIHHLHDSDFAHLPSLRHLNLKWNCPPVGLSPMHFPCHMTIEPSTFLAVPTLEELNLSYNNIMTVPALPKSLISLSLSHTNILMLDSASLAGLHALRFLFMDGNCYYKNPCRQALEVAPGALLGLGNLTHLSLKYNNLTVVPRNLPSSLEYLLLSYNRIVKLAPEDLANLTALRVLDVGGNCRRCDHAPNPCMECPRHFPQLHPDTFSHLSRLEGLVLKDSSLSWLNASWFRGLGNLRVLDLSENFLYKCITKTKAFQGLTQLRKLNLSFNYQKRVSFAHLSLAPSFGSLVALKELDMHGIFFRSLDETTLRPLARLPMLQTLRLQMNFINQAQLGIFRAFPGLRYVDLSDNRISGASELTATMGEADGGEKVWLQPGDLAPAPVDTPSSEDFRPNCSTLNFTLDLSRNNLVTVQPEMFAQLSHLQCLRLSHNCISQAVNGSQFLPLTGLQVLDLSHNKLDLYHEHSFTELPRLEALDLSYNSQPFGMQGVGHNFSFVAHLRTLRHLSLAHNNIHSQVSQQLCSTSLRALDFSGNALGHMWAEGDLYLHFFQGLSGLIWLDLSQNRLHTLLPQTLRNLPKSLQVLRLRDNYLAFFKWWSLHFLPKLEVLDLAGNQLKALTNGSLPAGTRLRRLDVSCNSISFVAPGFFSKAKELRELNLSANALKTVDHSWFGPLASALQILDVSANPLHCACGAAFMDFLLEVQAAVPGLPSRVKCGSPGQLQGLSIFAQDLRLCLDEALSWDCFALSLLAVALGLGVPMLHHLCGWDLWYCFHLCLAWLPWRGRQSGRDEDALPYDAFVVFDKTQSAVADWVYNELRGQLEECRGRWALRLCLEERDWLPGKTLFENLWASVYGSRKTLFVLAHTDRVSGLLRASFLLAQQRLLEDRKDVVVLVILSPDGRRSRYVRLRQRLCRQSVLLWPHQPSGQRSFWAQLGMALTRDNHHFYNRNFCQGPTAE
The assay is described as follows: TLR9 inhibition reporter assay (HEK-Blue cells, SEAP reporter, ODN2006 stimulation). Particulars: HEK-Blue cells overexpressing human TLR9, SEAP reporter, ODN2006 5 nM. Summed up: as §1

The IC50 is the point on the concentration scale where inhibition reaches its midpoint. Take `Cc1c(-c2[nH]c3sc(N4CCNCC4)nc3c2C(C)C)cn(C)c(=O)c1C` [Example 279, 5-(6-isopropyl-2-(piperazin-1-yl)-4H-pyrrolo[3,2-d]thiazol-5-yl)-1,3,4-trimethylpyridin-2(1H)-one]: the IC50 at human TLR7 turned out to be 11 nM; at human TLR8 it was 1.08 nM; on human TLR9, 23900 nM.

On to `Cc1c(-c2[nH]c3sc(N4CCN(C(=O)CN(C)C)CC4)nc3c2C(C)C)cn2ncnc2c1C` [Example 280, 1-(4-(5-(7,8-dimethyl-[1,2,4]triazolo[1,5-a]pyridin-6-yl)-6-isopropyl-4H-pyrrolo[3,2-d]thiazol-2-yl)piperazin-1-yl)-2-(dimethylamino)ethan-1-one], for which the IC50 at human TLR7 came to 1.26 nM; on human TLR8, 0.73 nM; against human TLR9 it was 4960 nM.

Turning to `Cc1c(-c2[nH]c3sc(N4CCN(CC(C)(C)O)CC4)nc3c2C(C)C)cn2ncnc2c1C` [Example 281, 1-(4-(5-(7,8-dimethyl-[1,2,4]triazolo[1,5-a]pyridin-6-yl)-6-isopropyl-4H-pyrrolo[3,2-d]thiazol-2-yl)piperazin-1-yl)-2-methylpropan-2-ol], the IC50 at human TLR7 turned out to be 9.49 nM; on human TLR8, 0.45 nM; on human TLR9, 42600 nM.

With `Cc1c(-c2[nH]c3sc(N4CCN(C5CCOCC5)CC4)nc3c2C(C)C)cn2ncnc2c1C` [Example 287, 5-(7,8-dimethyl-[1,2,4]triazolo[1,5-a]pyridin-6-yl)-6-isopropyl-2-(4-(tetrahydro-2H-pyran-4-yl)piperazin-1-yl)-4H-pyrrolo[3,2-d]thiazole], the results for the IC50 on human TLR7, on human TLR8 and against human TLR9 were 13.3 nM, 0.54 nM and 29200 nM, respectively.

For `Cc1c(-c2[nH]c3sc(N4CCN(C(C)C)CC4)nc3c2C(C)C)cn2ncnc2c1C` [Example 288, 5-(7,8-dimethyl-[1,2,4]triazolo[1,5-a]pyridin-6-yl)-6-isopropyl-2-(4-isopropylpiperazin-1-yl)-4H-pyrrolo[3,2-d]thiazole], the 50% inhibitory concentration (IC50) at human TLR7 amounted to 15.2 nM; at human TLR8, 0.52 nM; on human TLR9, 14200 nM.

With `Cc1c(-c2[nH]c3sc(N4CCN(CC5(C)COC5)CC4)nc3c2C(C)C)cn2ncnc2c1C` [Example 289, 5-(7,8-dimethyl-[1,2,4]triazolo[1,5-a]pyridin-6-yl)-6-isopropyl-2-(4-((3-methyloxetan-3-yl)methyl)piperazin-1-yl)-4H-pyrrolo[3,2-d]thiazole], the figures for the IC50 on human TLR7, at human TLR8 and against human TLR9 were 5.19 nM, 0.97 nM and 19700 nM, respectively.

For `Cc1c(-c2[nH]c3sc(N4CCC(NC5(C)COC5)CC4)nc3c2C(C)C)cn2ncnc2c1C` [Example 290, 1-(5-(7,8-dimethyl-[1,2,4]triazolo[1,5-a]pyridin-6-yl)-6-isopropyl-4H-pyrrolo[3,2-d]thiazol-2-yl)-N-(3-methyloxetan-3-yl)piperidin-4-amine], the half-maximal inhibitory concentration (IC50) on human TLR7 stood at 8.56 nM; at human TLR8 it was 1.09 nM; at human TLR9, 22100 nM.

For `Cc1c(-c2[nH]c3sc(N4CCC(NCC(C)(C)O)CC4)nc3c2C(C)C)cn2ncnc2c1C` [Example 291, 1-((1-(5-(7,8-dimethyl-[1,2,4]triazolo[1,5-a]pyridin-6-yl)-6-isopropyl-4H-pyrrolo[3,2-d]thiazol-2-yl)piperidin-4-yl)amino)-2-methylpropan-2-ol], the figures for the IC50 on human TLR7, at human TLR8 and against human TLR9 were 7.65 nM, 0.39 nM and 16800 nM, respectively.

Take `Cc1c(-c2[nH]c3sc(N4CCC(N(C)C(C)C)CC4)nc3c2C(C)C)cn2ncnc2c1C` [Example 292, 1-(5-(7,8-dimethyl-[1,2,4]triazolo[1,5-a]pyridin-6-yl)-6-isopropyl-4H-pyrrolo[3,2-d]thiazol-2-yl)-N-isopropyl-N-methylpiperidin-4-amine]: the IC50 was 3.18 nM at human TLR7, 0.46 nM at human TLR8 and 7520 nM against human TLR9.

As to `Cc1c(-c2[nH]c3sc(N4CCC(NC5CCC5)CC4)nc3c2C(C)C)cn2ncnc2c1C` [Example 293, N-cyclobutyl-1-(5-(7,8-dimethyl-[1,2,4]triazolo[1,5-a]pyridin-6-yl)-6-isopropyl-4H-pyrrolo[3,2-d]thiazol-2-yl) piperidin-4-amine], the half-maximal inhibitory concentration (IC50) on human TLR7 amounted to 2.98 nM; at human TLR8 it was 0.38 nM; on human TLR9 it was 6650 nM.

Take `COC(C)(C)CNC1CCN(c2nc3c(C(C)C)c(-c4cn5ncnc5c(C)c4C)[nH]c3s2)CC1` [Example 294, 1-(5-(7,8-dimethyl-[1,2,4]triazolo[1,5-a]pyridin-6-yl)-6-isopropyl-4H-pyrrolo[3,2-d]thiazol-2-yl)-N-(2-methoxy-2-methylpropyl)piperidin-4-amine]: the IC50 at human TLR7 was determined as 7.97 nM; on human TLR8, 0.42 nM; on human TLR9, 8990 nM.

The values above are taken from patent US20230139171A1 (SITA Information Networking Computing UK Limited, priority 2019, published 2023).
